Laboratory results from paper PMC9090415, “Discovery of small molecule inhibitors of Plasmodium falciparum apicoplast DNA polymerase” (Journal of Enzyme Inhibition and Medicinal Chemistry, 2022).

Molecular target: P. falciparum apicoplast DNA polymerase (Pf-apPOL) (Plasmodium falciparum, UniProt Q8ILY1)
Test: Fluorescence-based high-throughput DNA polymerase assay (molecular beacon), primary screen and dose-response
Type: biochemical
Method: The HT assay employs a molecular beacon, a stem-loop DNA template with a Cy3 dye and the Black Hole Quencher on the 3′ and 5′ ends of the DNA, respectively. Pf-apPOL concentration is based on a calculated absorptivity of ε280 = 56750 M^−1 cm^−1. Reactions were carried out at 25 °C, using Corning 3575 […] (well-volume, 20 µL). Assays testing for compound inhibition composed of reaction buffer (pH 7.9 in 50 mM potassium acetate, 20 mM Tris-acetate and 10 mM magnesium acetate), Pf-apPOL (20 nM), DNA substrate (20 nM), dNTPs (6 µM), and compound (10 µM in DMSO). The DNA and nucleotide substrates (dNTPs) were at concentrations of 20 nM and 6 µM, respectively, in the assay. Pf-apPOL was incubated in the reaction buffer with dNTPs and the compound of interest (10 µM, in the assay) at 25 °C for 10 min. The DNA substrate was then added and the reaction was allowed to proceed for 90 min at 25 °C.
Each assay plate contained 16 negative controls (no Pf-apPOL, DMSO present) and 16 positive controls (Pf-apPOL present, no DMSO). The fluorescence of each well was determined using a BioTek Synergy Neo fluorescence plate reader using excitation and emission wavelengths of 555 and 570 nm, respectively.
In the above, Min is the average of fluorescence emission of the negative controls (substrate only), Max the average fluorescence emission from the positive controls (enzyme + substrate), and Test the emission from the assays in the presence of compounds (enzyme + compound + substrates). […] […] The IC50 of each compound was determined using Equation (2): (2) IC50= Vmax/(1+ (I/IC50)^n)
In the above, n measures cooperativity, with n > 1 indicating synergistic binding of more than a single molecule of the compound.
To identify apPOL inhibitors we utilised our previously developed high-throughput DNA polymerase assay. The HT assay is based on a molecular beacon DNA template that forms a stem-loop with a Cy3 dye and the Black Hole Quencher on the 3′ and 5′ ends of the DNA, respectively. DNA polymerase activity extends an annealed primer through the stem region, displacing the fluorophore from the quencher, thereby increasing its fluorescence (Figure 1(A)). The assay accurately recapitulates the kinetic behaviour of apPOL, as measured through more conventional low-throughput gel-based assays. The Z′ factor for the assay described here was 0.9 across all plates (data not shown).
Figure 1. High-throughput screening. (A) The fluorescent-based DNA polymerase assay used to screen the compound libraries. The DNA template strand is a hairpin loop with a primer annealed to the loop. The 3’ end of the primer is 11 bases away from the 6 bp duplex. Strand displacement activity of the DNA polymerase separates the Cy3 dye from the Black hole quencher leading to an increase in fluorescent signal. (B) The high-throughput assay workflow. The DNA polymerase is incubated with […] compound for 10 min prior to addition of the hairpin substrate. The reaction is quenched at 3 different time points and the fluorescent signal is measured and % inhibition is determined using the provided equation.

P. falciparum apicoplast DNA polymerase (Pf-apPOL), sequence (Q8ILY1 entry or part of it): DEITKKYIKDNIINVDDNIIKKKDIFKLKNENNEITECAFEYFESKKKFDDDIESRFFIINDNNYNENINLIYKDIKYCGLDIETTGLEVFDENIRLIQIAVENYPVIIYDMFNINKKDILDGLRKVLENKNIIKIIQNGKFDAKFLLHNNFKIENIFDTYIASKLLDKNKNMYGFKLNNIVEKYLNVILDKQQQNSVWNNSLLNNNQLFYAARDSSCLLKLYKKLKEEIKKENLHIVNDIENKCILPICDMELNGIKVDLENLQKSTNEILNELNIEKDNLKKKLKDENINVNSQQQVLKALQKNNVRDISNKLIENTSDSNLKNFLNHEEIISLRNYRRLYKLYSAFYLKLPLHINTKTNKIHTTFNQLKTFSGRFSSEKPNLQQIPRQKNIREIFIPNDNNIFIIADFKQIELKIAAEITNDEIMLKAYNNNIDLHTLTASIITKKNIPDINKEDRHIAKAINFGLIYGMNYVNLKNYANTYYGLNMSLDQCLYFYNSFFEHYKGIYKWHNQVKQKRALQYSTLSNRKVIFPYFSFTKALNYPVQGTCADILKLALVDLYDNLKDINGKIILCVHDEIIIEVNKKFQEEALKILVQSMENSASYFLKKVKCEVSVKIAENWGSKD

CCOc1cccc2cc(C(=O)Nc3nnc(-c4ccno4)o3)oc12 [Molecule 28, CCOc1cccc2c1oc(c2)C(=O)Nc1nnc(o1)c1ccno1]
% inhibition Apo pol 10' (DRC-1; 10'; concentration 2.5): 10.6274%
% inhibition Apo pol 10' (DRC-1; 10'; concentration 5): 33.541%
% inhibition Apo pol 10' (DRC-1; 10'; concentration 10): 66.1299%
% inhibition Apo pol 10' (DRC-1; 10'; concentration 20): 85.0301%
% inhibition Apo pol 10' (DRC-1; 10'; concentration 40): 91.7568%
% inhibition Apo pol 10' (DRC-1; 10'; concentration 80): 93.7028%
% inhibition Apol 90' (DRC-1; 90'; concentration 2.5): 2.531%
% inhibition Apol 90' (DRC-1; 90'; concentration 5): 15.4654%
% inhibition Apol 90' (DRC-1; 90'; concentration 10): 41.5074%
% inhibition Apol 90' (DRC-1; 90'; concentration 20): 63.6828%
% inhibition Apol 90' (DRC-1; 90'; concentration 40): 78.9695%
% inhibition Apol 90' (DRC-1; 90'; concentration 80): 87.3573%
% inhibition apPOL 180' (DRC-1; 180'; concentration 2.5): -1.99%
% inhibition apPOL 180' (DRC-1; 180'; concentration 5): 5.082%
% inhibition apPOL 180' (DRC-1; 180'; concentration 10): 24.8097%
% inhibition apPOL 180' (DRC-1; 180'; concentration 20): 44.8371%
% inhibition apPOL 180' (DRC-1; 180'; concentration 40): 65.9166%
% inhibition apPOL 180' (DRC-1; 180'; concentration 80): 81.0763%
% inhibition Apo pol 5' (DRC-2, 5', concentration 20 (unit not given)): 45%
% inhibition Apo pol 5' (DRC-2, 5', concentration 40 (unit not given)): 45%
% inhibition Apol 40' (DRC-2, 40', concentration 80 (unit not given)): 66%
% inhibition ApPOL 90' (DRC-2, 90', concentration 10 (unit not given)): 45%
% inhibition ApPOL 90' (DRC-2, 90', concentration 40 (unit not given)): 66%
% inhibition Apo pol 5' (DRC-2; 5'; concentration 2.5): 16%
% inhibition Apo pol 5' (DRC-2; 5'; concentration 5): 28%
% inhibition Apo pol 5' (DRC-2; 5'; concentration 10): 46%
% inhibition Apo pol 5' (DRC-2; 5'; concentration 20): 45%
% inhibition Apo pol 5' (DRC-2; 5'; concentration 40): 45%
% inhibition Apo pol 5' (DRC-2; 5'; concentration 80): 39%
% inhibition Apol 40' (DRC-2; 40'; concentration 2.5): 14%
% inhibition Apol 40' (DRC-2; 40'; concentration 5): 24%
% inhibition Apol 40' (DRC-2; 40'; concentration 10): 50%
% inhibition Apol 40' (DRC-2; 40'; concentration 20): 57%
% inhibition Apol 40' (DRC-2; 40'; concentration 40): 64%
% inhibition Apol 40' (DRC-2; 40'; concentration 80): 66%
% inhibition ApPOL 90' (DRC-2; 90'; concentration 2.5): 11%
% inhibition ApPOL 90' (DRC-2; 90'; concentration 5): 20%
% inhibition ApPOL 90' (DRC-2; 90'; concentration 10): 45%
% inhibition ApPOL 90' (DRC-2; 90'; concentration 20): 56%
% inhibition ApPOL 90' (DRC-2; 90'; concentration 40): 66%
% inhibition ApPOL 90' (DRC-2; 90'; concentration 80): 70%
% inhibition apPOL 180' (DRC-2; 180'; concentration 2.5): 2%
% inhibition apPOL 180' (DRC-2; 180'; concentration 5): 5%
% inhibition apPOL 180' (DRC-2; 180'; concentration 10): 29%
% inhibition apPOL 180' (DRC-2; 180'; concentration 20): 44%
% inhibition apPOL 180' (DRC-2; 180'; concentration 40): 61%
% inhibition apPOL 180' (DRC-2; 180'; concentration 80): 72%
DNA Pol (primary screen value of the 186 hits; unit not given; 90 min, 10 µM): 79
DNA Pol (primary screen value, head "DNA Pol", unit not given; 90 min, 10 µM): 79

O=[N+]([O-])c1cc2c(cc1CN1CCCCCC1)OCO2 [KU0004987]
DNA Pol ('DNA Pol'; screening value, unit not given; 90 min, 10 µM): 33
% inhibition Apo pol 10' (DRC-1; 10'; concentration 2.5): 6.817%
% inhibition Apo pol 10' (DRC-1; 10'; concentration 5): 8.194%
% inhibition Apo pol 10' (DRC-1; 10'; concentration 10): 20.8655%
% inhibition Apo pol 10' (DRC-1; 10'; concentration 20): 39.2503%
% inhibition Apo pol 10' (DRC-1; 10'; concentration 40): 59.1088%
% inhibition Apo pol 10' (DRC-1; 10'; concentration 80): 75.1762%
% inhibition Apol 90' (DRC-1; 90'; concentration 2.5): 1.395%
% inhibition Apol 90' (DRC-1; 90'; concentration 5): -0.8625%
% inhibition Apol 90' (DRC-1; 90'; concentration 10): 9.436%
% inhibition Apol 90' (DRC-1; 90'; concentration 20): 21.3205%
% inhibition Apol 90' (DRC-1; 90'; concentration 40): 39.3126%
% inhibition Apol 90' (DRC-1; 90'; concentration 80): 55.7488%
% inhibition apPOL 180' (DRC-1; 180'; concentration 2.5): -4.392%
% inhibition apPOL 180' (DRC-1; 180'; concentration 5): -7.266%
% inhibition apPOL 180' (DRC-1; 180'; concentration 10): 1.794%
% inhibition apPOL 180' (DRC-1; 180'; concentration 20): 10.6731%
% inhibition apPOL 180' (DRC-1; 180'; concentration 40): 27.0699%
% inhibition apPOL 180' (DRC-1; 180'; concentration 80): 43.7361%
% inhibition Apo pol 5' (DRC-2, 5', concentration 2.5): 17%
% inhibition Apo pol 5' (DRC-2, 5', concentration 5): 20%
% inhibition Apo pol 5' (DRC-2, 5', concentration 10): 32%
% inhibition Apo pol 5' (DRC-2, 5', concentration 20): 39%
% inhibition Apo pol 5' (DRC-2, 5', concentration 40): 46%
% inhibition Apo pol 5' (DRC-2, 5', concentration 80): 49%
% inhibition Apol 40' (DRC-2, 40', concentration 2.5): 13%
% inhibition Apol 40' (DRC-2, 40', concentration 5): 15%
% inhibition Apol 40' (DRC-2, 40', concentration 10): 22%
% inhibition Apol 40' (DRC-2, 40', concentration 20): 29%
% inhibition Apol 40' (DRC-2, 40', concentration 40): 39%
% inhibition Apol 40' (DRC-2, 40', concentration 80): 49%
% inhibition ApPOL 90' (DRC-2, 90', concentration 2.5): 9%
% inhibition ApPOL 90' (DRC-2, 90', concentration 5): 9%
% inhibition ApPOL 90' (DRC-2, 90', concentration 10): 16%
% inhibition ApPOL 90' (DRC-2, 90', concentration 20): 23%
% inhibition ApPOL 90' (DRC-2, 90', concentration 40): 33%
% inhibition ApPOL 90' (DRC-2, 90', concentration 80): 45%
% inhibition apPOL 180' (DRC-2, 180', concentration 2.5): 0.644%
% inhibition apPOL 180' (DRC-2, 180', concentration 5): 0.589%
% inhibition apPOL 180' (DRC-2, 180', concentration 10): 6%
% inhibition apPOL 180' (DRC-2, 180', concentration 20): 10%
% inhibition apPOL 180' (DRC-2, 180', concentration 40): 22%
% inhibition apPOL 180' (DRC-2, 180', concentration 80): 36%
% inhibition ApPOL 90' (conc 2.5 (unit not given); 90'; DRC-2): 9%
% inhibition ApPOL 90' (conc 5 (unit not given); 90'; DRC-2): 9%
% inhibition Apol 40' (conc 10 (unit not given); 40'; DRC-2): 22%
% inhibition Apo pol 5' (conc 20 (unit not given); 5'; DRC-2): 39%
% inhibition Apol 40' (conc 40 (unit not given); 40'; DRC-2): 39%
% inhibition apPOL 180' (conc 40 (unit not given); 180'; DRC-2): 22%
% inhibition Apo pol 5' (conc 80 (unit not given); 5'; DRC-2): 49%
% inhibition Apol 40' (conc 80 (unit not given); 40'; DRC-2): 49%
DNA Pol (primary screen hit value, DNA Pol (186 hits); 90 min, 10 µM): 33

CSC1=C(C#N)C(=C(C#N)C#N)NC(c2ccccc2)=N1 [Molecule 2]
IC50 (supplemental file 2, sheet IC50 nontoxic compounds; Pf-apPOL): 5.66 µM
